Results taken from ChEMBL document CHEMBL5338750, “Design of Sonosensitizers Integrated with Resveratrol Motif for Synergetic Sonodynamic Therapy and Nuclear Factor Kappa B Transcription Suppression of Breast Cancer” (J Med Chem, 2023).
Calls of active or inactive are those of the source. No cut-off for these calls is given here.

Experiments:
MCF7 [1] = assay: Cytotoxicity against human MCF7 cells assessed as inhibition of cell growth preincubated for 72 hrs followed by ultrasonic sound treatment for 30 sec by MTT assay; format: functional, cell-based; conditions: for Activity: time 259230.0 sec
MCF7 [2] = assay: Sono-cytotoxicity against human MCF7 cells assessed as inhibition of cell growth preincubated for 4 hrs followed by ultrasonic sound treatment for 30 sec by MTT assay; format: functional, cell-based
MCF7 [3] = assay: Sono-cytotoxicity against human MCF7 cells assessed as inhibition of cell growth preincubated for 4 hrs followed by ultrasonic sound treatment for 5 mins by MTT assay; format: functional, cell-based
MCF7 [4] = assay: Induction of apoptosis in human MCF7 cells assessed as early apoptotic cells preincubated for 4 hrs followed by ultrasonic sound treatment for 30 sec and measured after 24 hrs by Annexin V-FITC/propidium iodide double staining based flow cytometry analysis (reference value: 1.83 %); format: functional; conditions: 28 h
MCF7 [5] = assay: Sono-cytotoxicity against human MCF7 cells assessed as inhibition of cell growth preincubated for 4 hrs followed by ultrasonic sound treatment for 2 mins by MTT assay; format: functional, cell-based
MCF7 [6] = assay: Induction of ROS generation in human MCF7 cells assessed as increase in ROS level incubated for 4 hrs by DCFH-DA dye based flow cytometry analysis (Rvb=2.9%); format: functional
[7] = target: Nuclear factor NF-kappa-B complex (Homo sapiens) (UniProt Q00653+P19838+Q04206); assay: Inhibition of H2O2-induced NFkappaB activation in human MCF7 cells at 1 uM measured for 12 hrs by ELISA analysis; format: cell-based
[8] = Induction of hyperthermia in solvent assessed as increase in temperature at 10 uM treated with ultrasonic sound for 2 mins and measured after 5 mins; conditions: time 7.0 min
MCF7 [9] = assay: Induction of apoptosis in human MCF7 cells assessed as viable cells preincubated for 4 hrs followed by ultrasonic sound treatment for 30 sec and measured after 24 hrs by Annexin V-FITC/propidium iodide double staining based flow cytometry analysis (reference value: […]); format: functional; conditions: 28 h
MCF7 [10] = assay: Induction of apoptosis in human MCF7 cells at 10 uM incubated for 24 hrs by Annexin V-FITC/propidium iodide double staining based flow cytometry analysis; format: functional, cell-based
MCF7 [11] = assay: Cytotoxicity against human MCF7 cells assessed as inhibition of cell growth more than 1 uM measured for 72 hrs by MTT assay; format: functional, cell-based
MCF7 [12] = assay: Induction of apoptosis in human MCF7 cells assessed as late apoptotic cells preincubated for 4 hrs followed by ultrasonic sound treatment for 30 sec and measured after 24 hrs by Annexin V-FITC/propidium iodide double staining based flow cytometry analysis (reference value: 0 %); format: functional; conditions: 28 h
[13] = Inhibition of LPS-stimulated NO production in mouse RAW264.7 cells incubated for 24 hrs by Griess reagent based microplate reader analysis; format: functional, cell-based; conditions: RAW264.7, 24 h
MCF7 [14] = assay: Cytotoxicity against human MCF7 cells assessed as inhibition of cell growth incubated for 72 hrs by MTT assay; format: functional, cell-based; conditions: MCF7, 72 h
MCF7 [15] = assay: Induction of ROS generation in human MCF7 cells assessed as increase in red fluorescence incubated for 4 hrs by Hoechst 33342 staining based confocal microscopic analysis; format: functional, cell-based
MCF7 [16] = assay: Induction of ROS generation in human MCF7 cells assessed as increase in ROS level preincubated for 4 hrs followed by ultrasonic sound treatment for 30 sec by DCFH-DA dye based flow cytometry analysis (Rvb= 3.5%); format: functional; conditions: time 14430 sec; 4.008 h
MCF7 [17] = assay: Induction of apoptosis in human MCF7 cells assessed as necrotic cells preincubated for 4 hrs followed by ultrasonic sound treatment for 30 sec and measured after 24 hrs by Annexin V-FITC/propidium iodide double staining based flow cytometry analysis (reference value: 1.05%); format: functional; conditions: 28 h
[18] = Inhibition of LPS-stimulated NO production in mouse RAW264.7 cells at 10 uM incubated for 24 hrs by Griess reagent based microplate reader analysis relative to control; format: functional
MCF7 [19] = assay: Induction of ROS generation in human MCF7 cells assessed as […] preincubated for 4 hrs followed by ultrasonic sound treatment for 30 sec by DCFH-DA dye based inverted microscopy; format: functional, cell-based; conditions: time 14430.0 sec
[20] = Toxicity in BALB/c mouse xenografted with human MCF7 cells assessed as spleen damage at 1.2 mg/kg, iv administered for 10 days and measured immediately by Hand E staining based analysis; format: organism-based; conditions: in vivo, 240 h, time 10 day
Mus musculus = assay: Induction of hyperthermia in BALB/c mouse xenografted with human MCF7 cells assessed as burning of skin at 1.2 mg/kg, iv administered for 10 days followed by ultrasonic sound treatment for 2 to 6 hrs and measured immediately; format: functional, organism-based; conditions: time 242-246 hrs
MCF7 [21] = assay: Antitumor activity against human MCF7 cells xenografted in BALB/c mouse assessed as tumor growth inhibition at 1.5 mg/kg, iv administered for 10 days followed by ultrasonic sound treatment for 2 to 6 hrs and measured immediately; format: functional; conditions: time 242-246 hrs, read-out: TGI
[22] = Toxicity in BALB/c mouse xenografted with human MCF7 cells assessed as lung damage at 1.2 mg/kg, iv administered for 10 days and measured immediately by Hand E staining based analysis; format: organism-based; conditions: in vivo, 240 h, time 10 day
[23] = Toxicity in BALB/c mouse xenografted with human MCF7 cells assessed as drug tolerance at 1.5 mg/kg, iv administered for 10 days followed by ultrasonic sound treatment for 2 to 6 hrs and measured immediately; format: organism-based; conditions: in vivo, time 242-246 hrs
[24] = Toxicity in BALB/c mouse xenografted with human MCF7 cells assessed as liver damage at 1.2 mg/kg, iv administered for 10 days followed by ultrasonic sound treatment for 2 to 6 hrs and measured immediately by Hand E staining based analysis; format: organism-based; conditions: in vivo, time 242-246 hrs
[25] = Toxicity in BALB/c mouse xenografted with human MCF7 cells assessed as lung damage at 1.2 mg/kg, iv administered for 10 days followed by ultrasonic sound treatment for 2 to 6 hrs and measured immediately by Hand E staining based analysis; format: organism-based; conditions: in vivo, time 242-246 hrs
[26] = Toxicity in BALB/c mouse xenografted with human MCF7 cells assessed as spleen damage at 1.2 mg/kg, iv administered for 10 days followed by ultrasonic sound treatment for 2 to 6 hrs and measured immediately by Hand E staining based analysis; format: organism-based; conditions: in vivo, time 242-246 hrs
[27] = Toxicity in BALB/c mouse xenografted with human MCF7 cells assessed as heart damage at 1.2 mg/kg, iv administered for 10 days followed by ultrasonic sound treatment for 2 to 6 hrs and measured immediately by Hand E staining based analysis; format: organism-based; conditions: in vivo, time 242-246 hrs
[28] = Drug uptake in BALB/c mouse skin xenografted with human MCF7 cells assessed as accumulation of red fluorescence at 1.5 mg/kg, iv measured at 6 hrs by fluorescence imaging analysis; format: ADME, organism-based, Skin of body; conditions: in vivo
[29] = Toxicity in BALB/c mouse xenografted with human MCF7 cells assessed as heart damage at 1.2 mg/kg, iv administered for 10 days and measured immediately by Hand E staining based analysis; format: organism-based; conditions: in vivo, 240 h, time 10 day
[30] = Toxicity in BALB/c mouse xenografted with human MCF7 cells assessed as kidney damage at 1.2 mg/kg, iv administered for 10 days followed by ultrasonic sound treatment for 2 to 6 hrs and measured immediately by Hand E staining based analysis; format: organism-based; conditions: in vivo, time 242-246 hrs
MCF7 [31] = assay: Effect of IL-6 protein level in human MCF7 cells at 10 uM measured for 24 hrs by ELISA analysis; format: functional, cell-based
[32] = Drug uptake in BALB/c mouse limb xenografted with human MCF7 cells assessed as accumulation of red fluorescence at 1.5 mg/kg, iv measured at 6 hrs by fluorescence imaging analysis; format: ADME, organism-based; conditions: in vivo
[33] = Toxicity in BALB/c mouse xenografted with human MCF7 cells assessed as kidney damage at 1.2 mg/kg, iv administered for 10 days and measured immediately by Hand E staining based analysis; format: organism-based; conditions: in vivo, 240 h, time 10 day
[34] = Toxicity in BALB/c mouse xenografted with human MCF7 cells assessed as liver damage at 1.2 mg/kg, iv administered for 10 days and measured immediately by Hand E staining based analysis; format: organism-based; conditions: in vivo, 240 h, time 10 day
MCF7 [35] = assay: Effect of TNF-alpha protein level in human MCF7 cells at 10 uM measured for 24 hrs by ELISA analysis; format: functional, cell-based
[36] = Toxicity in BALB/c mouse xenografted with human MCF7 cells assessed as decrease in body weight at 1.5 mg/kg, iv administered for 10 days followed by ultrasonic sound treatment for 2 to 6 hrs and measured immediately; format: organism-based; conditions: in vivo, time 242-246 hrs
[37] = Downregulation of IL-6 expression level in serum of BALB/c mouse at 1.5 mg/kg, iv measured at 12 to 24 hrs; format: functional; conditions: time 12-24 hrs
[38] = Drug uptake in BALB/c mouse tumor xenografted with human MCF7 cells assessed as accumulation of red fluorescence at 1.5 mg/kg, iv measured at 6 hrs by fluorescence imaging analysis; format: ADME, organism-based, Neoplasm; conditions: in vivo
MCF7 [39] = assay: Effect of p38 protein level in human MCF7 cells at 10 uM measured for 24 hrs by ELISA analysis; format: functional, cell-based

Chain of Nuclear factor NF-kappa-B complex (Homo sapiens) (P19838 whole entry, looked up): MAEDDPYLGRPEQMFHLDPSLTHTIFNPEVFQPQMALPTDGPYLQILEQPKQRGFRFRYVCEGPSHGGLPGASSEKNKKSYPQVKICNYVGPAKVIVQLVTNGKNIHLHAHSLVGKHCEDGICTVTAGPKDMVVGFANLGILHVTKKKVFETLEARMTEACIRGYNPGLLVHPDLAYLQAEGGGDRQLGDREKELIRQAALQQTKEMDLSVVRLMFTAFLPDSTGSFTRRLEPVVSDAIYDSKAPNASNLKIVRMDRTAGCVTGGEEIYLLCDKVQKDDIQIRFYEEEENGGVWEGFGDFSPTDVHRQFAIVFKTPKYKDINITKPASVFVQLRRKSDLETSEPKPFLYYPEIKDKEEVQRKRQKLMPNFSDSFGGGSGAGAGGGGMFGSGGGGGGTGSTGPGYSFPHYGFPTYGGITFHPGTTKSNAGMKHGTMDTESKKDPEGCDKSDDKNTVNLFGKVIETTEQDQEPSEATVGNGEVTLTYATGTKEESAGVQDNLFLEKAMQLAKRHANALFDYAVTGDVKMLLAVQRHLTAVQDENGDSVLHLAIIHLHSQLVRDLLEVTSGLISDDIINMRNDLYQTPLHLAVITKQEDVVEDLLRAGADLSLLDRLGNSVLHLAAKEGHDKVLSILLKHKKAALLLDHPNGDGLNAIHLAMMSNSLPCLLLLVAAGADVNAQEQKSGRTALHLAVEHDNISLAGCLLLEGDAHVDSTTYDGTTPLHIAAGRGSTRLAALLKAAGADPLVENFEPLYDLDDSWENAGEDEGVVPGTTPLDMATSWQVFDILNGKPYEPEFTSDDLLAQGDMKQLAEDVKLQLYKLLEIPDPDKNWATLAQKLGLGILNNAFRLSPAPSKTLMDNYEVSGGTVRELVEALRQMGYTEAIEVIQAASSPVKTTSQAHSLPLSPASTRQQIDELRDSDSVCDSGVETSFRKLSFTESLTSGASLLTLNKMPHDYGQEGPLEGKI
Chain of Nuclear factor NF-kappa-B complex (Homo sapiens) (Q00653 whole entry, looked up): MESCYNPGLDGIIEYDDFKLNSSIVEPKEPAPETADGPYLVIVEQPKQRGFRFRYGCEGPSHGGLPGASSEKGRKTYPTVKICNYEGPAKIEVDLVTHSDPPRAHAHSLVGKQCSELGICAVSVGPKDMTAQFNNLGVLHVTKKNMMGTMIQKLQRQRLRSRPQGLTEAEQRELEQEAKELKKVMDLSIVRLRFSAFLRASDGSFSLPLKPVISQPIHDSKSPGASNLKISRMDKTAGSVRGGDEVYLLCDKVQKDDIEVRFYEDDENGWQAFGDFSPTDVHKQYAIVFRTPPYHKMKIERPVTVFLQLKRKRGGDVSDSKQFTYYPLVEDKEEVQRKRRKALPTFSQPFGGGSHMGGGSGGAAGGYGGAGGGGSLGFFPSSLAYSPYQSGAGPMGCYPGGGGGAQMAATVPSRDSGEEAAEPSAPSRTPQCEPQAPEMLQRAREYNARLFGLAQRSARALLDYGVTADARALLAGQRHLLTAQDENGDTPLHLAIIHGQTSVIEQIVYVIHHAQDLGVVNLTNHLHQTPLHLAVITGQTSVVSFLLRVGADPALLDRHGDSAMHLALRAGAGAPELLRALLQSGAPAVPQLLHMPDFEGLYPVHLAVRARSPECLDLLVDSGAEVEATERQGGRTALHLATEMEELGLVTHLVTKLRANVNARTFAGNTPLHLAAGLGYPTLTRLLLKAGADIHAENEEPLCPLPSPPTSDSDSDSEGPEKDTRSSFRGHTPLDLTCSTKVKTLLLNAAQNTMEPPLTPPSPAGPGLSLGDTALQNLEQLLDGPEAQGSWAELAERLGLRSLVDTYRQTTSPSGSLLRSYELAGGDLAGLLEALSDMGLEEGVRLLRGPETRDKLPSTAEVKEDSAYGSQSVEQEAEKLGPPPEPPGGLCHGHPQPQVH
Chain of Nuclear factor NF-kappa-B complex (Homo sapiens) (Q04206 whole entry, looked up): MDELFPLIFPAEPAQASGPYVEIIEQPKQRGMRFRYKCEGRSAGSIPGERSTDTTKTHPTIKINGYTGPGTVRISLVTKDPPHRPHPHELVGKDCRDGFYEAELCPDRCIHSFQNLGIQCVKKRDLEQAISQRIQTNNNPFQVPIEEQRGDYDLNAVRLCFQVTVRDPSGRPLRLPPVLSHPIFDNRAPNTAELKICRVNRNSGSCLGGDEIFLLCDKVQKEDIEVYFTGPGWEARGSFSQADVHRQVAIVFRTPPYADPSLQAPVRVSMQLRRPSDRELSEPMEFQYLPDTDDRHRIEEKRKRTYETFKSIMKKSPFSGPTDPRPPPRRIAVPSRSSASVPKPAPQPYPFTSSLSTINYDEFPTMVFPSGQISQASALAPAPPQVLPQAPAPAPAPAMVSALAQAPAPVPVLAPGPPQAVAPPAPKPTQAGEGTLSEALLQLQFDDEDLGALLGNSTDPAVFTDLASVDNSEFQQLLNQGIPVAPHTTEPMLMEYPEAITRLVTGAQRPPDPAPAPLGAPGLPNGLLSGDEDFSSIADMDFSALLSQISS

Q: Which Activity (MCF7 [1]) does the source give for `COc1cc(/C=C/C(=O)CC(=O)/C=C/c2ccc(O)c(OC)c2)ccc1O` here?
A: Active

Q: Which IC50 (MCF7 [2]) does the source give for `COc1cc(/C=C/c2ccc(N(c3ccc(Br)cc3)c3ccc(-c4ccc(-c5cccs5)c5nsnc45)cc3)cc2)cc(OC)c1` here?
A: 4.2 µM

Q: What about the IC50 (MCF7 [3]) of the same compound?
A: 1.2 µM

Q: What about the Activity (MCF7 [4]) of the same compound?
A: 87.5%

Q: And the IC50 (MCF7 [5])?
A: 2 µM

Q: What about the Activity (MCF7 [6]) of the same compound?
A: 4.5%

Q: What about the inhibition [7] of the same compound?
A: Active

Q: And the T [8]?
A: 3.4 °C

Q: What about the Activity (MCF7 [9]) of the same compound?
A: 56.4%

Q: What about the Activity (MCF7 [10]) of the same compound?
A: inactive

Q: And the Activity (MCF7 [11])?
A: Active

Q: And the Activity (MCF7 [12])?
A: 1.74%

Q: What about the EC50 [13] of the same compound?
A: 0.0729 µM

Q: What about the IC50 (MCF7 [14]) of the same compound?
A: 9.2 µM

Q: What about the Activity (MCF7 [15]) of the same compound?
A: Active

Q: What about the Activity (MCF7 [16]) of the same compound?
A: 48.1%

Q: And the Activity (MCF7 [17])?
A: 4.37%

Q: What about the inhibition at 10 µM [18] of the same compound?
A: 48%

Q: What about the Activity (MCF7 [19]) of the same compound?
A: inactive

Q: Which IC50 (MCF7 [2]) does the source give for `COc1cc(/C=C/c2ccc(N(c3ccc(/C=C/c4cc(OC)cc(OC)c4)cc3)c3ccc(-c4ccc(-c5ccc(N(c6ccc(/C=C/c7cc(OC)cc(OC)c7)cc6)c6ccc(/C=C/c7cc(OC)cc(OC)c7)cc6)cc5)c5nsnc45)cc3)cc2)cc(OC)c1` here?
A: 3.5 µM

Q: What about the IC50 (MCF7 [3]) of the same compound?
A: 0.61 µM

Q: What about the Activity (MCF7 [4]) of the same compound?
A: 28.7%

Q: What about the IC50 (MCF7 [5]) of the same compound?
A: 0.83 µM

Q: And the Activity (MCF7 [6])?
A: 5.8%

Q: And the inhibition [7]?
A: Active

Q: And the T [8]?
A: 5.9 °C

Q: What about the Activity (MCF7 [9]) of the same compound?
A: 35.4%

Q: What about the Activity (MCF7 [10]) of the same compound?
A: inactive

Q: What about the Activity (MCF7 [11]) of the same compound?
A: Active

Q: What about the IC50 (MCF7 [1]) of the same compound?
A: 3.5 µM

Q: And the Activity (MCF7 [12])?
A: 3.59%

Q: What about the EC50 [13] of the same compound?
A: 0.217 µM

Q: And the IC50 (MCF7 [14])?
A: 3.6 µM

Q: What about the Activity (MCF7 [15]) of the same compound?
A: Active

Q: And the Activity (MCF7 [16])?
A: 97.5%

Q: And the Activity (MCF7 [17])?
A: 2.33%

Q: What about the inhibition at 10 µM [18] of the same compound?
A: 72%

Q: And the Activity (MCF7 [19])?
A: inactive

Q: With `C=CC1=C(C)c2cc3[nH]c(cc4nc(cc5[nH]c(cc1n2)c(C)c5CCC(=O)O)C(CCC(=O)O)=C4C)c(C)c3C=C` as the compound, how does the Activity (MCF7 [1]) read?
A: Active

Q: Which results are given for `COc1cc(/C=C/c2ccc(N(c3ccccc3)c3ccc(-c4ccc(-c5ccc(N(c6ccccc6)c6ccc(/C=C/c7cc(OC)cc(OC)c7)cc6)cc5)c5nsnc45)cc3)cc2)cc(OC)c1`?
A: Activity [20]: Non-Toxic; Activity (Mus musculus): Active; inhibition in vivo at 1.5 mg/kg (MCF7 [21]): 70%; IC50 (MCF7 [2]): 1.6 µM; Activity [22]: Non-Toxic; IC50 (MCF7 [3]): 0.29 µM; Activity (MCF7 [4]): 70%; IC50 (MCF7 [5]): 0.55 µM; Activity (MCF7 [6]): 12.4%; inhibition [7]: Active; T [8]: 3.9 °C; Activity [23]: Non-Toxic; Activity (MCF7 [9]): 29.7%; Activity (MCF7 [10]): inactive; Activity (MCF7 [11]): Active; Activity [24]: Non-Toxic; IC50 (MCF7 [1]): 1.6 µM; Activity (MCF7 [12]): 0.29%; Activity [25]: Non-Toxic; Activity [26]: Non-Toxic; Activity [27]: Non-Toxic; Drug uptake [28]: Active; EC50 [13]: 0.0689 µM; IC50 (MCF7 [14]): 2.4 µM; Activity [29]: Non-Toxic; Activity [30]: Non-Toxic; Activity (MCF7 [15]): Active; Activity (MCF7 [16]): 92.8%; Activity (MCF7 [31]): Active; Drug uptake [32]: Active; Activity [33]: Non-Toxic; Activity (MCF7 [17]): 0.045%; Activity [34]: Non-Toxic; Activity (MCF7 [35]): Active; Activity [36]: Non-Toxic; inhibition at 10 µM [18]: 76%; Activity (MCF7 [19]): inactive; Activity [37]: 42%; Drug uptake [38]: Active; Activity (MCF7 [39]): Active
